# Assay results published in US20070031511A1, “Method of treatment” (priority 2003, published 2007).
# “Also recorded” adds a separate entry of the source.
# Assays:
# IMGE-5 cells [1] = experiment: IMGE-5 cell proliferation, MTT assay; format: cell-based, mice; conditions: DFO 1 μM
# human hepatomas = conditions: Hann et al, 1992; cited from earlier work
# CCK-2 receptor = molecular target: T1, CCK-2 receptor (Homo sapiens, UniProt P32239); experiment: Gamide-stimulated inositol phosphate production in COS-7 cells transfected with the CCK-2 receptor; format: cell-based; design: COS-7 cells transiently transfected with CCK-2 receptor cDNA; expressed in transfected cells; host or cells: COS-7; conditions: 1 μM DFO, 10 nM Gamide
# T1 sequence (P32239 1-447): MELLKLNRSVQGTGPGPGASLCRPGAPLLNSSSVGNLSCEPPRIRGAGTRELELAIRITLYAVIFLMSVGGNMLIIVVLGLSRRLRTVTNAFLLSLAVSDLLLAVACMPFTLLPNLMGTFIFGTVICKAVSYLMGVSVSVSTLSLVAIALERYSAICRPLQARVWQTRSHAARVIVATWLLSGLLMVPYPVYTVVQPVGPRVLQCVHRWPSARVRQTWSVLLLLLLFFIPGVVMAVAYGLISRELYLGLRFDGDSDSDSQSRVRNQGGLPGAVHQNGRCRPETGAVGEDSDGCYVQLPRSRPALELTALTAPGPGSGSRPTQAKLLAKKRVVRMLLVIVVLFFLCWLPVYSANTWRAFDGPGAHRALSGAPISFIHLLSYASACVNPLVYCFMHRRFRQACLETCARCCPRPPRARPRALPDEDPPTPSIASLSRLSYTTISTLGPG
# Experimental: Intracellular inositol phosphate production was determined as described previously (Qian et al, 1993). IMGE-5 cells (10^5 cells/ml) were plated in 24-multiwell culture plates in DMEM supplemented with 10% FBS, 200 IU/ml penicillin and 200 μg/ml streptomycin. 24 h later, cells were incubated with DMEM supplemented with antibiotics and Myo-[2-^3H]inositol (2.5 μCi/well) and shifted to 39° C. for 16 h. Cells were then washed with pre-warmed DMEM and incubated (20-30 minutes, 37° C.) with DMEM supplemented with 20 mM LiCl. Loaded cells were then washed in 1 ml of IP buffer (135 mM NaCl, 20 mM N-(2-hydroxyethyl)piperazine-N′-(2-ethanesulfonic acid), 2 mM CaCl2, 1.2 mM MgSO4, 1 mM ethylene glycol-bis(2-aminoethylether)-N,N,N′,N′-tetraacetic acid, 10 mM LiCl, and 0.5% bovine serum albumin, pH 7.45) and incubated with or without agonist in a final volume of 0.5 ml of IP buffer. After 1-h incubation at 37° C., the reaction was stopped by removing the incubation medium and adding 1 ml of a mixture of ethanol/HCl (2000:1; v/v). One ml of each aliquot was applied to a column containing 1.6 ml of a 1:2 (v/v) Dowex AG-1-X8 anion exchange resin in distilled water. The columns were washed with 4 ml of distilled water, followed by 4 ml of 40 mM HCOONH4, and inositol phosphates were eluted with 4 ml of 1 M HCOONH4. The radioactivity of each eluate was counted after addition of Complete phase combining system solution (Amersham, UK). For the positive control, IMGE-5 cells were incubated with a combination of 30 mM NaF and 10 μM AlCl3 under the same experimental conditions.
# Gamide-stimulated inositol phosphate production was measured in COS-7 cells transfected with the CCK-2 receptor. […] Bismuth ions alone had no effect on inositol phosphate production in CCK-2 receptor-transfected COS-7 cells and HT29 cells, even at the highest concentration tested.
# We then investigated the role of the individual glutamates in biological activity. The effects of the mutants GamideE7A and GamideE8,9A on inositol phosphate production in COS-7 cells transiently transfected with the CCK-2 receptor were compared.
# rectal mucosa = experiment: Proliferation in the rectal mucosa of rectally defunctioned rats (metaphase-arrested cells); format: in vivo; conditions: DFO 400 mg/kg intraperitoneally thrice weekly, 4 weeks; Ggly 2.5 nmol/kg/hr
# Experimental: DFO (400 mg/kg) was administered intraperitoneally thrice weekly, and bismuth ions were administered as colloidal bismuth subcitrate (135 mg/kg/12 hours) by oral gavage 5 days per week. After 4 weeks, the rats were injected with vincristine to arrest cycling cells in metaphase, and sacrificed 3 hrs later. Crypt heights in the rectal mucosa, and the number of metaphase arrested cells per crypt, were then determined microscopically.
# IMGE-5 cells [2] = experiment: Wound healing / cell migration assay; format: cell-based, mice
# Experimental: The IMGE-5 cell line was established from the gastric mucosa of mice transgenic for a temperature-sensitive mutant of the SV40 large T antigen (Hollande et al, 2001). IMGE-5 cells were generally grown at 33° C. in DMEM containing 1 unit/ml γ-interferon, 10% FBS, 100 U/ml penicillin, and 100 μg/ml streptomycin (permissive conditions). For all experiments, cells were transferred to 39° C. in the same medium without […] (non-permissive conditions), where they display differentiated characteristics such as expression of functional adherens and tight junctions. All experiments have been performed on cells between passages 20 and 35.
# In order to assess the effects of different stimuli on cell migration, wound healing experiments were performed as detailed elsewhere (Hollande et al, 1997). In brief, IMGE-5 cells were grown in 12-well plates in DMEM at 33° C. until they reached 80% confluence, then shifted to 39° C. and starved of serum for 24 h. The confluent monolayer was wounded using a 20 μl-pipette tip, and cells were then washed 3 times with phosphate-buffered saline (PBS: 2.7 mM KCl, 1.5 MM KH2PO4, 142 mM NaCl, and 10 mM Na2HPO4, pH 6.95) and treated with or without different compounds in DMEM with antibiotics. Morphology and migration of cells were observed and photographed immediately, and after treatment for 17 and 24 h. Wound width was measured at six different positions on the 24 h photographs, and averages calculated.
# hepatoma cell lines = conditions: Kicic et al, 2001; cited from earlier work
# IMGE-5 cells [3] = experiment: IMGE-5 cell proliferation, [3H]-thymidine incorporation; format: cell-based, mice
# Experimental: In some cases cell proliferation was also measured by [^3H]-thymidine incorporation as described previously (Oiry et al., 2000). Briefly, IMGE-5 cells (10^5/well) were seeded in 24-well plates in medium containing 10% FBS and 1 unit/ml γ-interferon. On the next day cells were serum starved and shifted to 39° C. for 24 hr. Cells were then incubated with or without various compounds at 39° C. for 17 h in medium supplemented with 0.2% bovine serum albumin only. Cells were incubated with 0.5 μCi of [^3H] thymidine in the same medium at 39° C. for 4 h, washed twice with PBS (2.7 mM KCl, 142 mM NaCl, 1.5 mM KH2PO4, 10 mM Na2HPO4, pH 6.95) containing 0.2% bovine serum albumin and incubated at 4° C. for 30 min with 5% trichloroacetic acid. Finally cells were washed with 95% ethanol to remove unincorporated [^3H] thymidine, and lysed with 1 M NaOH. Lysates were transferred to counting vials and neutralized with 1M HCl. The radioactivity of each lysate was counted in a β-counter after the addition of 10 ml of Pico-fluor 40 solution (Packard, Meriden, Conn.).
# In some experiments IMGE-5 cells were seeded in a 96-well plate at a density of 3-5×10^3 cells/well in.DMEM containing 10% FBS, and cultured at 33° C.. On the following day, the cells were serum-starved at 33° C. for 24 h. […] The cells were cultured at 39° C. for 24 h, and then harvested using a NUNC cell harvester. The amount of ^3H-thymidine incorporated through DNA synthesis was detected with a β-counter (Packard, Meriden, Conn.). […]
# [4] = 1H NMR titration of Ggly fragments with ferric citrate; format: binding; conditions: pH 5.3, 278 K, read-out: Apparent Kd for ferric ions from shift of the Glu10 amide resonance
# Experimental: The peptides LE5AYG, LE5A, E5AY and E5A (approximately 2 mM) were dissolved in H2O with 5 or 10% ^2H2O. […] Sequence-specific ^1H NMR resonance assignments were made from two-dimensional nuclear Overhauser enhancement spectroscopy (NOESY) and total correlation spectroscopy (TOCSY).
# The apparent dissociation constants, Kd, for the complexes between ferric ions and the nonapeptide LE5AYG or the octapeptide LE5AY were obtained from the change in chemical shift of the Glu10 amide proton on addition of ferric citrate using the program Sigmaplot (Jandel Scientific, San Rafael, Calif.), by linear regression of the data to the equation 1/δ=Kd/Δ·1/[Fe^3+]+1/Δ where δ is the change in chemical shift, Δ is the maximum change in chemical shift, and [Fe^3+] is the concentration of added ferric ions. Measurement of Inositol Phosphate Production
# In order to define the ligands involved in ferric ion binding, we next investigated the effect of ferric ions on the NMR spectra of the peptides. Ferric ion titration experiments were carried out by addition of 20, 50, or 200 mM ferric citrate solution to the peptides. The pH was maintained at 5.3 by addition of small amounts of NaO^2H or ^2HCl. Concentration, pH, temperature and use of ferrric citrate were in keeping with the conditions that were employed in earlier examples in order to prevent precipitation of peptide or ferric hydroxide. […]
Compound,Effect on Ggly-stimulated IMGE-5 cell proliferation (IMGE-5 cells [1]; MTT and thymidine assays),"Reduction of Gamide-stimulated IMGE-5 cell proliferation (IMGE-5 cells [1]; MTT, 72 h)",Inhibition of human hepatomas (human hepatomas),Effect on Gamide-stimulated inositol phosphate production (CCK-2 receptor),Effect on stimulation of proliferation of the rectal mucosa by Ggly (rectal mucosa),Effect on Ggly-stimulated IMGE-5 cell migration (IMGE-5 cells [2]; DFO 1 μM),Inhibition of proliferation of hepatoma cell lines in vitro (hepatoma cell lines),"S (%), maximum % stimulation (IMGE-5 cells [3]; IMGE cells, thymidine uptake, best fit at saturating concentration)",Stimulation of proliferation of IMGE cells (IMGE-5 cells [3]; incorporation of [3H]-thymidine),"Effect of DFO on proliferation induced by the peptide (IMGE-5 cells [3]; peptide 100 nM, plus or minus 1 μM DFO, [3H]-thymidine incorporation)",Kd [4],"Stimulation of cell migration compared with Ggly (IMGE-5 cells [2]; 100 nM peptide, 24 h)","Effect of DFO on peptide-stimulated migration (IMGE-5 cells [2]; 100 nM peptide, DFO in the medium)"
"CC(=O)N(O)CCCCCNC(=O)CCC(=O)N(O)CCCCCNC(=O)CCC(=O)N(O)CCCCCN [DFO, desferrioxamine]",completely blocked,60%,effective inhibitor,had no effect,significantly reduced,completely blocked,effective inhibitors,–,–,–,–,–,–
LEEEEEAYG [LE5AYG],–,–,–,–,–,–,–,45.8%,significantly stimulated proliferation,completely blocked; also recorded: significantly blocked by DFO,7 mM,more effective than Ggly,reversed by inclusion of DFO
